These are literature values, as cited in patent US7244749B2, “Compositions and methods for lowering plasma lipoprotein(a) and risk factors of cardiovascular diseases” (priority 2000, dated 2007).

This data set concerns plasma Lp(a). To be noted: males with prostatic cancer.

Take Estrogen: the “reduction of plasma Lp(a)” value was 50%.
